Consider 46 compounds from ChEMBL document CHEMBL1140618, “3D-QSAR and molecular docking studies on benzothiazole derivatives as Candida albicans N-myristoyltransferase inhibitors” (Eur J Med Chem, 2007).

In the test the target is T1, Glycylpeptide N-tetradecanoyltransferase (Candida albicans (strain SC5314 / ATCC MYA-2876) (Yeast), UniProt P30418).
T1 sequence (P30418 whole entry): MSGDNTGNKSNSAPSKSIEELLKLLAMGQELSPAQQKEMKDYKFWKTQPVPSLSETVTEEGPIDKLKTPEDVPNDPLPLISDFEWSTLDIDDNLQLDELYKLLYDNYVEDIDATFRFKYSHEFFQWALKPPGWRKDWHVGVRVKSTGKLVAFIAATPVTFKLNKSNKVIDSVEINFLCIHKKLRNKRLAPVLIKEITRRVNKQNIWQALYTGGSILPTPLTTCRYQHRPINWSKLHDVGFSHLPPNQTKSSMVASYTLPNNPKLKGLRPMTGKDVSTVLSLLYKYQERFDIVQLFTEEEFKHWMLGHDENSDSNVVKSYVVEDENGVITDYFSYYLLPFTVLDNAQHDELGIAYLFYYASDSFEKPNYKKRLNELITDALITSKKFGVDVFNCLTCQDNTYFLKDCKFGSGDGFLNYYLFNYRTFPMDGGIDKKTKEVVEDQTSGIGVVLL
Nature of the test: Inhibition of Candida albicans N-myristoyltransferse.
Take `O=C(NCCNCc1ccc2ccccc2c1)c1ccc2nc(NC(=O)C3CCC3)sc2c1`: the IC50 was 28 nM.

On to `CC(C)(C)OC(=O)Nc1nc2ccc(C(=O)NCCNCc3ccc4ccccc4c3)cc2s1`, for which the IC50 was over 10000 nM.

`O=C(NCCNCc1ccc2ccccc2c1)c1ccc2nc(NC(=O)c3ccc(C(F)(F)F)cc3)sc2c1` displayed an IC50 of over 10000 nM.

Consider `Cc1ccc(C(=O)c2oc3cccc(OCCCNCc4cccnc4)c3c2C)nc1`, for which the IC50 came to 0.39 nM.

For the compound `O=C(Nc1nc2ccc(C(=O)N3CCCC(NCc4ccc5ccccc5c4)C3)cc2s1)C1CCCCC1` (stereo unspecified), the IC50 turned out to be 210 nM. Compared with the last compound, the IC50 is about 540-fold higher.

As to `CC(=O)Nc1nc2ccc(C(=O)NCCNCc3ccc4ccccc4c3)cc2s1`, the half-inhibitory concentration (IC50) is over 10000 nM.

`O=C(NCCNCc1ccc2ccccc2c1)c1ccc2nc(NC(=O)C3CCNCC3)sc2c1`: the 50% inhibitory concentration (IC50) is over 10000 nM.

Compound `O=C(NCCNCc1ccc2ccccc2c1)c1ccc2nc(NC(=O)c3ccccc3)sc2c1` gave an IC50 of 160 nM.

Compound `O=C(CCCNCc1ccc2ccccc2c1)Nc1ccc2nc(NC(=O)C3CCCC3)sc2c1` registered a concentration for half-maximal inhibition (IC50) of 15 nM. Compared with the last compound, the IC50 is about 11-fold lower.

With `O=C(NCc1ccc(CNCc2ccc3ccccc3c2)cc1)c1ccc2nc(NC(=O)C3CCCCC3)sc2c1`, the IC50 is over 10000 nM.

Take `O=C(NCCNCc1ccc2ccccc2c1)c1ccc2nc(NCc3ccccn3)sc2c1`: the IC50 is over 10000 nM.

Take `O=C(NCCNCc1ccc2ccccc2c1)c1ccc2nc(NC(=O)c3ccccn3)sc2c1`: the 50% inhibitory concentration (IC50) is over 10000 nM.

The compound `O=C(Nc1nc2ccc(C(=O)N3CC(NCc4ccc5ccccc5c4)C3)cc2s1)C1CCCCC1` had a 50% inhibitory concentration (IC50) of 65 nM. This counts as double-digit nanomolar.

For the compound `O=C(CNCc1ccc2ccccc2c1)Nc1ccc2nc(NC(=O)C3CCCCC3)sc2c1`, half-maximal inhibition (IC50) required 2300 nM.

Turning to `O=C(NCCNCc1ccc2ccccc2c1)c1ccc2nc(NCC3CCCCC3)sc2c1`, the half-maximal inhibitory concentration (IC50) is over 1000 nM.

As to `O=C(NCCNCc1ccc2ccccc2c1)c1ccc2ncsc2c1`, the half-inhibitory concentration (IC50) was over 10000 nM.

In the case of `O=C(NCCNCc1ccc2ccccc2c1)c1ccc2nc(NC(=O)c3cccnc3Cl)sc2c1`, the half-inhibitory concentration (IC50) was over 10000 nM.

Regarding `O=C(NCc1cccc(CNCc2ccc3ccccc3c2)c1)c1ccc2nc(NC(=O)C3CCCCC3)sc2c1`, it took 1900 nM to reach half-maximal inhibition (IC50).

`CC(C)C(=O)Nc1nc2ccc(NC(=O)C3CCCC(NCc4ccc5ccccc5c4)C3)cc2s1` (stereo unspecified) displayed a half-inhibitory concentration (IC50) of 3.3 nM.

For the compound `O=C(NCCNCc1ccc2ccccc2c1)c1ccc2nc(NC(=O)c3cnccn3)sc2c1`, the IC50 was 730 nM.

In turn, `O=C(NCCNCc1ccc2ccccc2c1)c1ccc2nc(NCc3ccccc3)sc2c1` showed an IC50 of over 10000 nM.

As to `O=C(NCCNCc1ccc2ccccc2c1)c1ccc2nc(NC(=O)c3ccc(Cl)cc3)sc2c1`, the IC50 is over 10000 nM.

Consider `O=C(Nc1ccc2nc(NC(=O)C3CCCC3)sc2c1)C1CCC(NCc2ccc3ccccc3c2)CC1` (stereo unspecified), for which the IC50 worked out at 34 nM.

In the case of `O=C(Nc1nc2ccc(NC(=O)[C@H]3CCC[C@@H](NCc4ccc5ccccc5c4)C3)cc2s1)C1CCCC1`, 0.49 nM corresponded to half-maximal inhibition (IC50). Against the preceding compound, the IC50 is about 69-fold lower.

`CCC(=O)Nc1nc2ccc(C(=O)NCCNCc3ccc4ccccc4c3)cc2s1` yielded a half-inhibitory concentration (IC50) of 130 nM. Compared with the last compound, the IC50 is about 270-fold higher.

Regarding `COc1ccc(OC)c(C(=O)Nc2nc3ccc(C(=O)NCCNCc4ccc5ccccc5c4)cc3s2)c1`, the IC50 turned out to be 310 nM.

As for `O=C(CCNCc1ccc(-c2ccccc2)cc1)Nc1ccc2nc(NC(=O)C3CCCC3)sc2c1`, the concentration for half-maximal inhibition (IC50) was 160 nM.

`O=C(Nc1ccc2nc(NC(=O)C3CCCCC3)sc2c1)C1CCCC(NCc2ccc3ccccc3c2)C1` (stereo unspecified): half-maximal inhibition (IC50) was put at 8.1 nM.

Take `O=C(Nc1ccc2nc(NC(=O)C3CCC3)sc2c1)C1CCCC(NCc2ccc3ccccc3c2)C1` (stereo unspecified): the IC50 is 2.3 nM.

`O=C(NCCCCNCc1ccc2ccccc2c1)c1ccc2nc(NC(=O)C3CCCCC3)sc2c1` had an IC50 of 74 nM.

`O=C(Nc1nc2ccc(C(=O)N3CCC(NCc4ccc5ccccc5c4)C3)cc2s1)C1CCCCC1` (stereo unspecified) showed a concentration for half-maximal inhibition (IC50) of 190 nM.

Regarding `CC(C)C(=O)Nc1nc2ccc(C(=O)NCCNCc3ccc4ccccc4c3)cc2s1`, half-maximal inhibition (IC50) required 46 nM.

Take `O=C(NCCNCc1ccc2ccccc2c1)c1ccc2nc(NC(=O)c3ccc(Cl)c(Cl)c3)sc2c1`: the half-inhibitory concentration (IC50) was over 10000 nM.

For `Cc1c(COc2ccc(F)c(F)c2F)oc2cccc(OCCCNCc3cccnc3)c12`, half-maximal inhibition (IC50) was put at 5.7 nM. That is a single-digit nanomolar value.

As for `O=C(NCCCCCNCc1ccc2ccccc2c1)c1ccc2nc(NC(=O)C3CCCCC3)sc2c1`, the half-inhibitory concentration (IC50) was found to be 300 nM.

As to `O=C(Nc1nc2ccc(NC(=O)[C@@H]3CC[C@H](NCc4ccc5ccccc5c4)C3)cc2s1)C1CCCC1`, the IC50 is 11 nM.

`O=C(NCCCNCc1ccc2ccccc2c1)c1ccc2nc(NC(=O)C3CCCCC3)sc2c1` returned an IC50 of 110 nM.

For the compound `Nc1nc2ccc(C(=O)NCCNCc3ccc4ccccc4c3)cc2s1`, the IC50 is over 10000 nM.

Consider `O=C(Nc1ccc2nc(NC(=O)C3CCCC3)sc2c1)C1CCCC(NCc2ccc(-c3ccccc3)cc2)C1` (stereo unspecified), for which the midpoint of inhibition, the IC50, lay at 130 nM.

`O=C(Nc1ccc2nc(NC(=O)C3CC3)sc2c1)C1CCCC(NCc2ccc3ccccc3c2)C1` (stereo unspecified) yielded an IC50 of 2.4 nM.

For `O=C(NCCNCc1ccc2ccccc2c1)c1ccc2nc(NC(=O)C3CCCC3)sc2c1`, half-maximal inhibition (IC50) required 23 nM.

With `O=C(NCCNCc1ccc2ccccc2c1)c1ccc2nc(NC(=O)C3CCOCC3)sc2c1`, 890 nM corresponded to half-maximal inhibition (IC50).

`O=C(Nc1nc2ccc(C(=O)N3CCC(NCc4ccc5ccccc5c4)CC3)cc2s1)C1CCCCC1`: the midpoint of inhibition, the IC50, lay at 500 nM.

`CCOC(=O)c1oc2cccc(OCCCNC(C)(C)C)c2c1C`: the half-inhibitory concentration (IC50) was found to be 1700 nM.

The compound `O=C(NCCNCc1ccc2ccccc2c1)c1ccc2nc(NC(=O)C3CCCCC3)sc2c1` returned an IC50 of 34 nM.

With `O=C(Nc1nc2ccc(C(=O)N3CCC(CNCc4ccc5ccccc5c4)CC3)cc2s1)C1CCCCC1`, the IC50 was 26 nM.
